This is an account of results in paper PMC10815578 (International Journal of Molecular Sciences, 2024).

Several values for one entry are separate records, joined by “and”; a condition that tells them apart may be missing. Identical values can stand only once.

Series [1] addresses T1, OATP4C1 (Homo sapiens, UniProt Q6ZQN7).
T1 sequence (Q6ZQN7 1-724): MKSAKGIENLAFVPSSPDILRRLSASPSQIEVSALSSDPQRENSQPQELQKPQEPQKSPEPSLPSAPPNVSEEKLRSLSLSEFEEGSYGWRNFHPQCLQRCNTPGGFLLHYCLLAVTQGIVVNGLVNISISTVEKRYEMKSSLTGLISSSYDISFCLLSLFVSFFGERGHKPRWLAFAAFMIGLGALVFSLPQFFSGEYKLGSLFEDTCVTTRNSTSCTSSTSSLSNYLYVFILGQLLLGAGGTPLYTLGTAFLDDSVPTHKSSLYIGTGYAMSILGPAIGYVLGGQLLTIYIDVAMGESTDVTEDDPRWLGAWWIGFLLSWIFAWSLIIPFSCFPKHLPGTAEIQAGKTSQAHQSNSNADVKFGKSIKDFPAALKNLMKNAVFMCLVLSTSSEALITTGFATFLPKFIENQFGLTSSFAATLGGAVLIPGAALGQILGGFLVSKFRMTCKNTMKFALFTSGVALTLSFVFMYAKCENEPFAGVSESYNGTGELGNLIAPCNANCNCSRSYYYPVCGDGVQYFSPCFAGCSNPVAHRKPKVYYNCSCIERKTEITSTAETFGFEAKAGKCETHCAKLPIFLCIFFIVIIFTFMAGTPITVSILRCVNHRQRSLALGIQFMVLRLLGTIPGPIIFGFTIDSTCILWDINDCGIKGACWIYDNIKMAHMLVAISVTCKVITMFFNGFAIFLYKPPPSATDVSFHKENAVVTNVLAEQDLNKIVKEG
In words: Kinetic analysis of OATP4C1-mediated T3 uptake in the presence of inhibitors. It counts as cell-based. Also on record: expressed in transfected cells; sodium butyrate induction before uptake. The procedure: Data are shown as the mean ± SE (n = 6). The kinetic curves were fitted to the Michaelis–Menten equation. […] Each curve represents the fitted line obtained by the kinetic analysis by JMP Pro 16.
The kinetic curves were fitted to the Michaelis–Menten equation. […] The experiment was performed in duplicate (n = 2) and repeated three times.

The test system of the next series is OATP1B1. As to conditions: Supplementary table, ref previous reports (superscript numbers), cited from earlier work; for IC50: read-out: OATP1B1 IC50.
Another series deals with OATP2B1. As to conditions: Supplementary table, ref previous reports (superscript numbers), cited from earlier work; for IC50: read-out: OATP2B1 IC50.
Another series relates to OATP1B3. As to conditions: Supplementary table, ref previous reports (superscript numbers), cited from earlier work.
Series [2] concerns the target T1, OATP4C1. In words: Inhibition of OATP4C1-mediated T3 uptake in OATP4C1/MDCKII cells. As to conditions: for Ki: Ki for OATP4C1 (average); for inhibition at 10 min, 100 µM: human, pH 7.4, probe T3 (1 µM).
Method: Figure 3 Screening of the effect of food ingredients on OATP4C1-mediated transport. Cells were incubated with 1 µM T3 with or without food ingredients for 10 min at 37 °C. The concentration of the compounds was 100 µM, except for theaflavin (50 µM). The amount of OATP4C1-mediated uptake was calculated by subtracting the nonspecific uptake of T3 by mock cells from the total cellular uptake by OATP4C1-expressing cells. […] Dashed line represents 100% (control uptake in the absence of food ingredient).
The MDCKII cells transfected with OATP4C1 or an empty vector were established in our laboratory [18].
The cellular uptake of T3 was measured in monolayer cell cultures grown in 24-well plates. Cells were seeded at a density of 2.0 × 10^5 cells/well. Thereafter, the cells were incubated in a culture medium containing 5 mM sodium butyrate for 24 h before the uptake study. […] Cellular uptake was initiated by adding T3-containing KH buffer with or without each flavonoid. Uptake was terminated after 10 min by replacing the incubation buffer with ice-cold KH buffer. The cells were washed twice with ice-cold KH buffer. The concentration of T3 was measured using liquid chromatography/tandem mass spectrometry (LC/MS/MS). Cellular uptake was presented as the uptake amount divided by the amount of cellular protein quantified using the Bradford protein assay. The experiment was performed in triplicate (n = 3) and repeated three times. Flavonoids, except ellagic acid, were dissolved in dimethyl sulfoxide (DMSO) at a final concentration of less than 0.5%. A stock solution of ellagic acid (20 mM) was obtained by dissolving it in 0.05 M NaOH and was further diluted to 100 µM in KH buffer (the pH was adjusted to 7.4).
The experiment was performed in triplicate (n = 3) and repeated three times.
In a further series the test system is P-gp. As to conditions: Supplementary table; ref 40 of the supplement; cited from earlier work.

As a reminder, the IC50 is the concentration that inhibits the measured activity by half. As usually defined, the Ki is a measure of affinity in units of concentration, obtained from inhibition or displacement. In the case of `O=c1c(O)c(-c2ccc(O)cc2)oc2cc(O)cc(O)c12` [kaempferol], the “Vmax of OATP4C1-mediated T3 uptake in the presence of the inhibitor” value on OATP4C1 [1] (inhibitor 30 µM, 10 µM AA, 10 min, 37 °C) is given as 517 ± 92.6 pmol/mg Protein/10 min. The “manner of inhibition of OATP4C1-mediated T3 uptake” value at OATP4C1 [1] (kinetic analysis) is recorded as “competitive manner”. Moreover, the IC50 in the series with OATP1B1 was 32.4 µM and 33 µM; with OATP2B1, 20.7 ± 1.8 µM; against OATP4C1 [2] (IC50 for OATP4C1, AA(+) 10 µM, 1 µM T3, 10 min), 33.7 µM; against OATP4C1 [2] (IC50 for OATP4C1, AA(−), 1 µM T3, 10 min), 29.3 µM. Moreover, the Ki was 16 ± 1.9 µM with OATP1B1 (read-out: OATP1B1 Ki (asterisk)); 15.1 ± 7.8 µM with OATP2B1 (read-out: OATP2B1 Ki (asterisk)); 24.4 ± 1.8 µM in the series on OATP1B3 (read-out: OATP1B3 Ki (asterisk)); 28.8 µM at OATP4C1 [2] (AA(+) 10 µM, 1 µM T3, 10 min); 25.1 µM on OATP4C1 [2] (AA(−), 1 µM T3, 10 min).
Broadly, the inhibition is the percentage by which the read-out fell short of the control. A high value points to a response far below the control. `Oc1ccc(/C=C/c2cc(O)cc(O)c2)cc1` [resveratrol, Resveratrol]: the half-inhibitory concentration (IC50) in the series on P-gp was 6.64 µM; with OATP1B1, 9.1 µM; in the series on OATP2B1, 8.3 µM; with OATP1B3 (read-out: OATP1B3 IC50), 11.6 µM. Further, the inhibition at 10 min, 100 µM at OATP4C1 [2] (OATP4C1 inhibition degree, 100 µM, Supplementary table) came out at 46%; on OATP4C1 [2] (inhibition of OATP4C1-mediated transport, 100 µM compound, 1 µM T3, 10 min, 37 °C, without AA), 46%.
